Source: patent US11497701B2, “Multi-functional anti-microbial polymers and compositions containing same” (priority 2015, dated 2022)

What was measured:
Pseudomonas aeruginosa = test: Antibacterial susceptibility disc test (rings of inhibition); type: cell-based; details: disc on Mueller-Hinton plate, 18-24 hrs at 37° C.; polymers 100 μg per disc, control discs at given load; NI = No Inhibition
Procedure: (§1) Compounds were tested for antibacterial activity, as described in Ma et al. (2011), against pure cultures of Escherichia coli, Pseudomonas aeruginosa, Bacillus cereus, Proteus mirabilis/hauseri, and Staphylococcus aureus, supplied by Ward's Natural Science Ltd. (St. Catherines, Ontario, Canada). All cultures were maintained on Tryptic Soy agar. These cultures were then transferred using an inoculation loop to 10 mL of Tryptic soy broth, and grown at 37° C. for 24 hours. Triplicates of plate and broth cultures were made in case of error or contamination. Using a sterile swab, and aseptic techniques, the bacterial broth inocula were transferred to Mueller-Hinton plates and spread evenly, ensuring that the entire surface was inoculated. They were then left to dry for 3-5 minutes. The following control discs were used: Penicillin (10 μg), Tetracycline (30 μg), Chloramphenicol (30 μg), and Ampicillin (10 μg). Four antibiotic discs containing different compounds were placed equidistant from each other on a Mueller-Hinton plate. Each compound had three replicates per species. Plates were incubated for 18-24 hrs at 37° C., and then observed for rings of inhibition. If clear rings of inhibition were present, the diameter was measured twice using a caliper. […] Each polymer was applied to sterile filter paper discs as a solution (15 mg of compound in 3 mL of solvent). Each disc received 20 μL of solution, and was allowed to dry, giving a final concentration of 100 μg of compound per disc.

[1] = system: Proteus mirabilis/hauseri; test: as above; type: cell-based; details: disc on Mueller-Hinton plate, 18-24 hrs at 37° C.; polymers 100 μg per disc, control discs at given load; NI = No Inhibition
Procedure: as §1

Staphylococcus aureus = test: as above; type: cell-based; details: disc on Mueller-Hinton plate, 18-24 hrs at 37° C.; polymers 100 μg per disc, control discs at given load; NI = No Inhibition
Procedure: as §1

Escherichia coli = test: as above; type: cell-based; set-up: unit not given here; details: NI = No Inhibition; for diameter of ring of inhibition, E. coli (Table 5): all 10 μg; for diameter of ring of inhibition, E. coli: disc on Mueller-Hinton plate, 18-24 hrs at 37° C., polymers 100 μg per disc, control discs at given load
Procedure: as §1

Candida albicans = test: Antifungal susceptibility disc test (rings of inhibition); type: cell-based; details: disc on Sabouraud plate, 18-24 hrs at 37° C.; polymers 100 μg per disc, Amphotericin B 20 μg; NI = No Inhibition
Procedure: (§2) Each polymer was applied to sterile filter paper discs as a solution (15 mg of compound in 3 mL of solvent). Each disc received 20 μL of solution, and was allowed to dry, giving a final concentration of 100 μg of compound per disc. Adapted from Messer et al., (2007), this protocol was used to test novel compounds for antifungal properties against yeasts and fungi. Compounds were tested for antifungal activity against pure cultures of Saccharomyces cerevisiae, Candida albicans supplied by Ward's Natural Science Ltd. and Aspergillus niger and Aspergillus fumigatus supplied by […]. (Inverness Medical, Ottawa, Ontario, Canada). All cultures were maintained on Sabouraud agar. […] The cultures of A. niger and A. fumigatus were transferred, using an inoculation loop, to new Sabouraud agar and grown for 48 hrs. at 27° C., and 35° C. respectively, to cause sporulation. Triplicates of all the plates and broth cultures were made in case of error or contamination. Using a sterile swab, and aseptic techniques, the cell suspension of S. cerevisiae, and C. albicans were transferred to Sabouraud agar plates and spread evenly, ensuring that the entire surface was inoculated. They were then left to dry for 10 minutes. From the plates containing A. niger and A. fumigatus two small circles containing fungal growth of the A Niger or A Fumigatus fungi were cut from the agar plates, and using a glass/PTFE tissue homogenizer, were mixed and homogenized with 5 ml of sterile MilliQ water to create a suspension of fungal spores. Using a sterile swab, and aseptic techniques, the spore inocula of A. niger and A. fumigatus were transferred to Sabouraud agar plates and spread evenly, ensuring that the entire surface was inoculated. They were then left to dry for 10 minutes. Amphotericin B (20 μg) premade discs were used as a control. Three antibiotic discs containing different compounds were place equidistant apart on each Sabouraud plate. Each compound had three replicates per species. Plates containing S. cerevisiae, and C. albicans were incubated for 18-24 hrs at 37° C., A. niger for 48 hrs at room temperature, and A. fumigatus for 18-24 hrs at 35° C. […] If clear rings of inhibition were present, the diameter was measured twice using a caliper. Halos indicated partial inhibition of growth (Hicks et al., 2008).

Aspergillus fumigatus = test: as above; type: cell-based; details: disc on Sabouraud plate, 18-24 hrs at 35° C.; polymers 100 μg per disc, Amphotericin B 20 μg; NI = No Inhibition
Procedure: as §2

Aspergillus niger = test: as above; type: cell-based; details: disc on Sabouraud plate, 48 hrs at room temperature; polymers 100 μg per disc, Amphotericin B 20 μg; NI = No Inhibition
Procedure: as §2

Saccharomyces cerevisiae = test: as above; type: cell-based; details: disc on Sabouraud plate, 18-24 hrs at 37° C.; polymers 100 μg per disc, Amphotericin B 20 μg; NI = No Inhibition
Procedure: as §2

Bacillus cereus = test: Antibacterial susceptibility disc test (rings of inhibition); type: cell-based; details: disc on Mueller-Hinton plate, 18-24 hrs at 37° C.; polymers 100 μg per disc, control discs at given load; NI = No Inhibition
Procedure: as §1

[2] = Viscosity measurements (Brookfield Synchrolectric viscometer model LVF); type: physicochemical; details: 1% weight solution in distilled water, pH 7 and 25° C.
Procedure: The values in centi-poise (mPa·s, m=milli) were calculated as per the specifications set out by the instrument manufacturer.
The viscosity of the compositions described in Example 5, were also similarly measured, as well as 1% wt. solutions of pure BAC and hp-AETA.

Row | Compound | diameter of ring of inhibition, P. aeruginosa (Pseudomonas aeruginosa) | diameter of ring of inhibition, P. hauseri [1] | diameter of ring of inhibition, S. aureus (Staphylococcus aureus) | diameter of ring of inhibition, E. coli (Table 5) (Escherichia coli) | diameter of ring of inhibition, E. coli (Escherichia coli) | diameter of ring of inhibition, C. albicans (Candida albicans) | diameter of ring of inhibition, A. fumigatus (Aspergillus fumigatus) | diameter of ring of inhibition, A. niger (Aspergillus niger) | diameter of ring of inhibition, S. cerevisiae (Saccharomyces cerevisiae) | diameter of ring of inhibition, B. cereus (Bacillus cereus) | viscosity [2] [mPa·s]
1 | Penicillin | 7.0 | 19 | 43.8 | 19.5 | 19.5 | – | – | – | – | – | –
2 | C[C@@H]1[C@H](O)[C@@H](C)/C=C/C=C/C=C/C=C/C=C/C=C/C=C/[C@H](O[C@@H]2O[C@H](C)[C@@H](O)[C@H](N)[C@@H]2O)C[C@@H]2O[C@](O)(C[C@@H](O)C[C@@H](O)[C@H](O)CC[C@@H](O)C[C@@H](O)CC(=O)O[C@H]1C)C[C@H](O)[C@H]2C(=O)O [Amphotericin B] | – | – | – | – | – | 13.6 | 12.5 | 15.5 | 8.39 | – | –
3 | CN(C)[C@@H]1C(O)=C(C(N)=O)C(=O)[C@@]2(O)C(O)=C3C(=O)c4c(O)cccc4[C@@](C)(O)[C@H]3C[C@@H]12 [Tetracycline] | 9.9 | 13.7 | 24.7 | 25.3 | 20.4 | – | – | – | – | 20.3 | –
4 | Benzalkonium chloride [BAC] | – | – | – | – | – | – | – | – | – | – | 3.1
5 | O=C(N[C@H](CO)[C@H](O)c1ccc([N+](=O)[O-])cc1)C(Cl)Cl [Chloramphenicol] | 21.5 | 14.4 | 24.1 | 17.4 | 19.4 | – | – | – | – | 26.3 | –
6 | CC1(C)S[C@@H]2[C@H](NC(=O)[C@H](N)c3ccccc3)C(=O)N2[C@H]1C(=O)O [Ampicillin] | 10.2 | 11 | 40.4 | 15.4 | 15.0 | – | – | – | – | 13.5 | –
